Test results taken from patent US11351156B2, “Combination treatment of pancreatic cancer” (INSERM (Institut National de la Santé et de la Recherche …, priority 2017, dated 2022).
Like-named read-outs stand apart in the source and are kept apart here.

Tests used:
[1] = test system: serum-induced phosphopeptides in Capan-1 cells; test: SILAC phosphoproteomics of Capan-1 cells under PI3K inhibition; assay type: cell-based, human
Procedure: Light amino acid-labelled and heavy amino acid-labelled Capan-1 cells (respectively called thereafter “light” and “heavy” cells) were washed twice with phosphate buffer saline (PBS; SIGMA; D8537), trypsined (GE Healthcare; L11-002) and plated at a concentration of 2.5.10^6 cells in a 14.4 cm-diameter dish (Dutscher, 055063). After 48 h, cells were serum-starved during 16 h, over-night. Light and heavy cells were pre-treated respectively with inhibitors or their accordingly diluted vehicule (DMSO) during 1 h, then stimulated or not for 10 min or 24 h with 2% dialysed FBS. After 10 min and 24 h of FBS stimulation, heavy cells and light cells were maintained on ice, washed three times with cold PBS and lysed.
Cells were lysed on the plate with 2 mL of lysis buffer (Tris-HCl 100 mM-pH 7.8 (Sigma, T1503), SDS 1% (Sigma, L3771), EDTA 5 mM-pH7.8 (Euromedex, EU-0007-B), proteases and phosphatases inhibitors (Sigma) containing 1× cOmplete Roche proteases inhibitors cocktail (SIGMA, 04693132001), NaF 10 mM (Sigma, S1504), NaPPi 10 mM (Sigma, S6422) and Na3VO4 10 mM (Sigma, 450243)) during 30 min at 4° C. in dark. Cells were scraped, harvested and incubated 20 min at 57° C. To eliminate DNA-dependent viscosity, samples were sonicated (amplitude 40%, pulse 1 sec, interval 1 sec during 60 sec). Three other lysis buffers were also tested (Buffer 1: NH4HCO3 100 mM pH7.8, Urea 8M; Buffer 2: Tris-HCl 100 mM pH7.8, Urea 8M; Buffer 3/RIPA: Tris-HCl50 mM, NaCl 150 mM, Nonidet P-40 1% pH 7.8, SDS 0.1% (w/v)); the chosen buffer allowed the better extraction of phospho-tyrosine proteins as assessed by Western blotting with anti-pY (p-Tyr100) antibody (Cell Signaling Technology; 8954S) as compared to in gel 1-DE profile. Cell lysates were then cleared from insoluble fraction by centrifugation at 10,000×g for 15 min at 25° C., and protein concentration was measured by 2-D Quant kit (GE Healthcare, 80-6483-56). For each biological replicate, light and heavy lysates were mixed at a 1:1 ratio for a total amount of 6 mg.
Protein samples were reduced with 100 mM DTT (Sigma, D9163) for 35 min at 57° C. and then handled according to the FASP (Filter Aided Sample Preparation) digestion protocol using Amicon Ultra-15 Centrifugal Filter device (10 kDa cut-off, MILLIPORE, UFC901096). The 1st step consisted in the replacement of SDS by urea, then a dilution with UA buffer (Tris-HCl100 mM-pH 8.5, Urea 8M (Sigma, U5128)) and an alkylation with CAA solution (Tris-HCl 100 mM pH 8.5, Urea 8M, Chloroacetamide 50 mM (Sigma, CO267)). For optimization of trypsin efficiency, urea concentration was decreased at 200 mM with Ammonium Bicarbonate buffer (NH4HCO3 0.05M (SIGMA, 09830) and 10 mM phosphatase inhibitors as previously used in lysis buffer). In a 2nd step, Trypsin (Promega, V5117) digestion was performed at 1:50 (w/w) trypsin:protein ratio overnight at 37° C. on the Amicon Ultra-15 Centrifugal Filter. Tryptic peptides were acidified with 1% trifluoroacetic acid (TFA—Sigma, T6508), cleared at 5,000 rpm for 15 minutes at 15° C., and desalted using C18 Sep-Pak plus cartridges (Waters, WAT043395, 500 mg sorbent). Resin was conditioned with 15 mL in 80% Acetonitrile (ACN—Sigma, 34888) then equilibrated with 15 mL in 0.1% TFA. After the loading step, sample was washed with 15 mL in 0.1% TFA, and the elution was performed with 4 mL in 80% ACN, 0.1% TFA). Eluted peptides were lyophilized with a speed-vacuum over night.
Protocol for the enrichment with TiO2 beads is based on Larsen et al., [45] and Jensen et al.. […]

[2] = test system: pAkt; test: Western blot of Akt phosphorylation in serum-starved, inhibitor-pretreated, stimulated Capan-1 cells; assay type: cell-based, human; settings: for pS473 and pT308Akt levels: Capan-1, after 10 min stimulation with serum
Procedure: Pancreatic cancer cell were cultured consistent conditions. Eight hours after plating of cells, they were serum-starved during 16 h, over-night. Cells were pre-treated with inhibitors or their accordingly diluted vehicle (DMSO) during 1 h, then stimulated or not for 10 min or 24 h with 2% FBS, for 10 min with […] EGF, 100 nM Insulin, 50 ng/ml IGF-1, 1 μM LPA, 30 ng/ml PDGF, 200 nM S1P, 1× amino acids or 2 g/l glucose.
Cells were harvested on ice, washed twice with cold PBS, collected, and frozen at −80° C.

[3] = test system: KPC mouse model that rapidly develops PDAC; settings: cited from earlier work; for tumour progression / tumour size: 12-week old KPC mice, 7 day-treated; for murine lethality / survival: treatment started at 8 weeks of age
[4] = test system: BxPC-3 cancer cells xenografts; settings: given after establishment of xenografts; cited from earlier work
[5] = test system: KPC pancreatic tumour; settings: cited from earlier work
[6] = test system: primary patient-derived PDAC cells; settings: mouse, in vivo; cited from earlier work
[7] = test system: Panc1 cells and human primary Akt2-amplified pancreatic tumour cell; settings: cited from earlier work
[8] = test system: AZD6244-resistant tumours; settings: added to AZD6244; cited from earlier work
[9] = test system: gemcitabine-resistant metastatic pancreatic cancer; settings: gemcitabine-resistant metastatic pancreatic cancer patients, cited from earlier work
[10] = test system: pancreatic cancer; settings: standard of line chemotherapy; cited from earlier work

Compound: Cc1nc(NC(=O)N2CCC[C@H]2C(N)=O)sc1-c1csc(C(C)(C)C)n1 [A66]
- number of serum-induced phosphopeptides changed ([1]; Capan-1, 10 min): 449
- number of serum-induced phosphopeptides changed ([1]; Capan-1, 24 h): 404
- pS473 and pT308Akt levels [2]: significantly inhibited
- RTK-driven (EGF) short-term phosphorylation of Akt ([2]; EGF stimulation): inhibited
- re-activation of pAkt upon long-term PI3K inhibition ([2]; serum stimulation, time course up to 48 h): prevents this re-activation of pAkt

Compound: O=C1NC(=O)/C(=C/c2ccc(-c3ccc(F)cc3O)o2)S1 [AS-252424]
- number of serum-induced phosphopeptides changed ([1]; Capan-1, 10 min): 504
- number of serum-induced phosphopeptides changed ([1]; Capan-1, 24 h): 404
- pS473 and pT308Akt levels [2]: significantly inhibited
- GPCR-driven (LPA) short-term phosphorylation of Akt ([2]; LPA stimulation): inhibited

Compound: Cn1cnc2c(F)c(Nc3ccc(Br)cc3Cl)c(C(=O)NOCCO)cc21 [AZD6244]
- tumour progression / tumour size [3]: progressive disease
- murine lethality / survival [3]: nearly no effect

Compound: Nc1cc(C(F)(F)F)c(-c2cc(N3CCOCC3)nc(N3CCOCC3)n2)cn1 [BKM120]
- tumour progression / tumour size [3]: progressive disease
- murine lethality / survival [3]: nearly no effect

Compound: CS(=O)(=O)N1CCN(Cc2cc3nc(-c4cccc5[nH]ncc45)nc(N4CCOCC4)c3s2)CC1 [GDC-0941]
- tumour volumes [4]: did not impair tumour volumes
- disease status ([5]; 14 days after established tumours detection): stable disease
- pancreatic tumour growth ([5]; KPC mice, 14 days): efficiently prevent
- response of orthotopic patient-derived PDAC [6]: responded the same way

Compound: O=c1cc(N2CCOCC2)oc2c(-c3ccccc3)cccc12 [LY-294002]
- number of serum-induced phosphopeptides changed ([1]; Capan-1, 10 min): 427
- number of serum-induced phosphopeptides changed ([1]; Capan-1, 24 h): 258

Compound: Cn1c(=O)n(-c2ccc(C(C)(C)C#N)cc2)c2c3cc(-c4cnc5ccccc5c4)ccc3ncc21 [NVP-BEZ235]
- combination effect with panobinostat [7]: additive effect
- tumour cell growth [7]: reduced
- prevention of resistance to AZD6244 [8]: able to prevent this process

Compound: CO[C@H]1C[C@@H]2CC[C@@H](C)[C@@](O)(O2)C(=O)C(=O)N2CCCC[C@H]2C(=O)O[C@H]([C@H](C)C[C@@H]2CC[C@@H](OCCO)[C@H](OC)C2)CC(=O)[C@H](C)/C=C(\C)[C@@H](O)[C@@H](OC)C(=O)[C@H](C)C[C@H](C)/C=C/C=C/C=C/1C [RAD001]
- clinical / therapeutic activity [9]: only a minimal clinical action
- tolerability [9]: well tolerated
- clinical / therapeutic activity ([9]; listed as Everolimus): failed to demonstrate the therapeutic activity

Compound: CO[C@H]1C[C@@H]2CC[C@@H](C)[C@@](O)(O2)C(=O)C(=O)N2CCCC[C@H]2C(=O)O[C@H]([C@H](C)C[C@@H]2CC[C@@H](O)[C@H](OC)C2)CC(=O)[C@H](C)/C=C(\C)[C@@H](O)[C@@H](OC)C(=O)[C@H](C)C[C@H](C)/C=C/C=C/C=C/1C [Sirolimus]
- tolerability [9]: well tolerated

Compound: Cc1cc(C(C)Nc2ccccc2)c2nc(N3CCOCC3)cc(=O)n2c1 (stereo not shown) [TGX-221]
- number of serum-induced phosphopeptides changed ([1]; Capan-1, 10 min): 436
- number of serum-induced phosphopeptides changed ([1]; Capan-1, 24 h): 437
- pS473 and pT308Akt levels [2]: significantly inhibited

Compound: CO[C@H]1C[C@@H]2CC[C@@H](C)[C@@](O)(O2)C(=O)C(=O)N2CCCC[C@H]2C(=O)O[C@H]([C@H](C)C[C@@H]2CC[C@@H](OC(=O)C(C)(CO)CO)[C@H](OC)C2)CC(=O)[C@H](C)/C=C(\C)[C@@H](O)[C@@H](OC)C(=O)[C@H](C)C[C@H](C)/C=C/C=C/C=C/1C [Temsirolimus]
- clinical / therapeutic activity [9]: failed to demonstrate the therapeutic activity

Compound: Nc1ccn([C@@H]2O[C@H](CO)[C@@H](O)C2(F)F)c(=O)n1 [gemcitabine]
- increase of patient survival [10]: only a few weeks
